How the values were obtained:
[1] = system: Human umbilical vein endothelial cells (HUVEC); experiment: VEGF-induced proliferation of endothelial cells, MTT assay; format: cell-based; conditions: for proliferation of HUVEC induced by VEGF (MTT): 1, 5, 10, 25 μM, 10 ng/mL VEGF, 48 hours; for growth of HUVEC without VEGF (cell toxicity): concentration up to 50 μM without VEGF, not shown in figure
Method: MTT assay was carried out investigate the effect of capsiate or dihydrocapsiate on the proliferation of endothelial cells (EC) induced by VEGF.
Human umbilical vein endothelial cells (HUVEC) were placed on a gelatin-coated 24-well plate at a concentration of 2×10^4 cells/well. After culturing for 24 hours, followed by washing twice with M199 medium (Invitrogen, USA), the cells were cultured for 6 hours in M199 medium containing 1% FBS. After addition of capsiate or dihydrocapsiate at different concentrations (1 μM, 5 μM, 10 μM, 25 μM), followed by pre-culturing for 30 minutes, 10 ng/mL VEGF (Upstate, USA) was added and the cells were cultured for 48 hours. Then, 3-(4,5-dimethylthiazol-2-yl)-2,5-diphenyltetrazolium bromide salt (MTT) solution (0.5 mg/mL) was added and the cells were cultured at 37° C. for 3 hours. Remaining MTT was cautiously removed and the formed crystal was dissolved in DMSO for 30 minutes and subjected to absorbance measurement at 560 nm after mixing well for 5 minutes.

cyclin A = experiment: Cyclin expression, Western blotting: cyclin A; format: cell-based, human; conditions: HUVEC; 1, 5, 10, 25 μM; 10 ng/mL VEGF; 12 hours
Method: (§1) 3×10^5 HUVEC were placed on a 60 mm plate and cultured for 24 hours. After washing twice with M199 medium (Invitrogen, USA), the cells were cultured in M199 medium containing 1% FBS for 6 hours. After adding capsiate or dihydrocapsiate at different concentrations (1 μM, 5 μM, 10 μM, 25 μM), followed by pre-culturing for 30 minutes, 10 ng/mL VEGF was added and the cells were cultured for 12 hours. The cells were collected and proteins obtained therefrom were quantitated and the expression level of the proteins was identified by Western blotting using antibodies of cyclin D1, cyclin E and cyclin A.

HUVEC [2] = experiment: VEGF-induced proliferation of endothelial cells, 3H-thymidine incorporation assay; format: cell-based, human; conditions: 25 μM; 10 ng/mL VEGF
Method: The inhibition effect of capsiate or dihydrocapsiate on the proliferation of EC induced by VEGF was investigated by ^3H-thymidine incorporation assay according to a method published in the literature [Lee O H et al., 1999, Biochem. Biophys. Res. Commun., 264: 743-750].
In brief, HUVEC were placed on a gelatin-coated 24-well plate at a concentration of 2×10^4 cells/well. After culturing for 24 hours, followed by washing twice with M199 medium (Invitrogen, USA), the cells were cultured for 6 hours in M199 medium containing 1% FBS. After addition of 25 μM capsiate or dihydrocapsiate, followed by pre-culturing for 30 minutes, 10 ng/mL VEGF was added and the cells were cultured for 30 hours. Then, 0.5 μCi/mL ^3H-thymidine was added and the cells were cultured for 6 hours.
DNA was precipitated from the cultured cells in 10% trichloroacetic acid at 4° C. for 30 minutes and washed twice with water. The DNA was dissolved in 0.2 N NaOH/0.1% SDS and measured using a liquid scintillation counter.

VE-cadherin = experiment: Tyrosine phosphorylation of VE-cadherin, Western blotting; format: cell-based, human; conditions: HUVEC; 5, 10, 25 μM; 50 ng/mL VEGF
Method: Because VEGF is known to induce tyrosine phosphorylation of VE-cadherin and thereby regulate permeability between endothelial cells by making the intercellular contact loose [Esser S. et al., 1998, J. Cell Sci., 111: 1853-1865], the inhibition effect on tyrosine phosphorylation of VE-cadherin was investigated.
3.5×10^5 HUVEC were placed on a 60 mm plate and cultured for 24 hours. After washing twice with M199 medium (Invitrogen, USA), the cells were cultured in M199 medium containing 1% FBS for 6 hours. After treating with capsiate or dihydrocapsiate at different concentrations (5 μM, 10 μM, 25 μM) for 30 minutes, followed by pre-culturing for 30 minutes, the cells were cultured for 6 hours after adding 50 ng/mL VEGF. Proteins were collected from the cells and, after quantitation, subjected to Western blotting using VE-cadherin antibody in order to identify the level of protein expression.

cyclin D1 = experiment: Cyclin expression, Western blotting: cyclin D1; format: cell-based, human; conditions: HUVEC; 1, 5, 10, 25 μM; 10 ng/mL VEGF; 12 hours
Method: as §1

cyclin E = experiment: Cyclin expression, Western blotting: cyclin E; format: cell-based, human; conditions: HUVEC; 1, 5, 10, 25 μM; 10 ng/mL VEGF; 12 hours
Method: as §1

CD31 = experiment: Endothelial cell content in Matrigel plug, CD31 immunohistochemical staining; format: in vivo; conditions: C57/BL6 mouse Matrigel plug; 60 μg; 100 ng VEGF
Method: Immunohistochemical staining was carried out using CD31 in order to measure the endothelial cell content in the Matrigel plug.
The Matrigel plug was fixed using 2% formaldehyde and moisture was removed from the Matrigel using 15% sucrose and 30% sucrose based on the principle of osmosis. Then, the Matrigel plug was hardened at −70° C. The hardened Matrigel plug was sliced with a thickness of 8-12 μm, stained with CD31-antibody (PECAM-1 antibody, BD Biosciences, USA) and the level of expression by endothelial cells was observed under a microscope.

HUVEC [3] = experiment: Cell cycle analysis by FACS; format: cell-based, human; conditions: 1, 5, 10, 25 μM, 10 ng/mL VEGF, 20 hours
Method: In order to identify the mechanism of the inhibition of proliferation of endothelial cells confirmed in Example 9, fluorescence-activated cell sorting (FACS) analysis was carried out on the cells at different phases of cell cycle.
3×10^5 HUVEC were placed on a 60 mm plate and cultured for 24 hours. After washing twice with M199 medium (Invitrogen, USA), the cells were cultured in M199 medium containing 1% FBS for 6 hours. After adding capsiate or dihydrocapsiate at different concentrations (1 μM, 5 μM, 10 μM, 25 μM), followed by pre-culturing for 30 minutes, 10 ng/mL VEGF was added and the cells were cultured for 20 hours. Then, the cells were fixed with ethanol cooled in ice. The fixed cells were dehydrated in PBS containing 2% FBS and 0.1% Tween 20 at 4° C. for 30 minutes. After centrifuge, the cells were lysed in the same buffer solution. After treating with RNase (37° C., 1 hr), followed by staining with propidium iodide, analysis was carried out using a FACS analyzer (FACScan DB PharMingen flow cytometer).

SMILES: COc1cc(COC(=O)CCCCCCC(C)C)ccc1O [dihydrocapsiate]
- proliferation of HUVEC induced by VEGF (MTT) [1]: inhibited by capsiate or dihydrocapsiate in a concentration-dependent manner
- growth of HUVEC without VEGF (cell toxicity) [1]: grew normally
- VEGF-increased cyclin A expression in protein level (cyclin A): concentration-dependent decrease
- VEGF-increased DNA synthesis in HUVEC (3H-thymidine incorporation) (HUVEC [2]): inhibited the DNA synthesis
- VEGF-induced phosphorylation of VE-cadherin (VE-cadherin): decreased in a concentration-dependent manner
- VEGF-increased cyclin D1 expression in protein level (cyclin D1): concentration-dependent decrease
- VEGF-increased cyclin E expression in protein level (cyclin E): concentration-dependent decrease
- level of CD31 expression in Matrigel plug (CD31): decreased to the extent comparable to the control group
- number of endothelial cells in G1 arrest phase (HUVEC [3]): increase of the number of endothelial cells in G1 arrest phase

SMILES: COc1cc(COC(=O)CCCC/C=C/C(C)C)ccc1O [capsiate]
- proliferation of HUVEC induced by VEGF (MTT) [1]: inhibited by capsiate or dihydrocapsiate in a concentration-dependent manner
- growth of HUVEC without VEGF (cell toxicity) [1]: grew normally
- VEGF-increased cyclin A expression in protein level (cyclin A): concentration-dependent decrease
- VEGF-increased DNA synthesis in HUVEC (3H-thymidine incorporation) (HUVEC [2]): inhibited the DNA synthesis
- VEGF-induced phosphorylation of VE-cadherin (VE-cadherin): decreased in a concentration-dependent manner
- VEGF-increased cyclin D1 expression in protein level (cyclin D1): concentration-dependent decrease
- VEGF-increased cyclin E expression in protein level (cyclin E): concentration-dependent decrease
- level of CD31 expression in Matrigel plug (CD31): decreased to the extent comparable to the control group
- number of endothelial cells in G1 arrest phase (HUVEC [3]): increase of the number of endothelial cells in G1 arrest phase
